{
  "source": "patent US20240041050A1",
  "about": "“CELL PENETRATING PEPTIDE MEDIATED RNA TRANSDUCTION WITHIN INSECT CELLS” (PIONEER HI-BRED INTERNATIONAL, INC., priority 2020, published 2024)",
  "key": {"[1]": {"test_system": "western corn rootworm (WCR) larvae", "assay": "Oral toxicity screening of CPPs in artificial diet", "assay_type": "in vivo", "conditions": "first instar WCR larvae, mortality and stunting", "procedure": "Briefly, CPPs were incorporated into standard WCR artificial diet in 96-well microtiter plate format. A 25 μL aliquot of dosing solution was combined with 75 μL molten low-melt WCR diet and shaken on an orbital shaker to mix. Once diet solidified, preconditioned first instar WCR (freshly-hatched insects placed on neutral diet for 24 hours prior to transfer to test diet) were added to the diet plates at a rate of 1 insect·well^−1. Plates were placed inside an incubator (Percival Scientific, Inc., Perry, IA) set to 27° C., 65% RH, and a 24-hour dark cycle. The assay was scored for mortality and stunting affects after 7 and 12 days, without diet refresh, on a 0-3 scale, where 3=mortality, 2=severe stunting, 1=stunting, 0=no affect when compared with untreated larvae. The assay was repeated three times and end-results were tabulated using all three replicates and converted to percentages (Table 5)."}, "dvssj1 frag 1 dsRNA": {"test_system": "dvssj1 frag 1 dsRNA", "assay": "CPP·dsRNA complex formation by gel shift assay", "assay_type": "binding", "conditions": "770 nM unlabeled dsRNA (2100 ng); molar ratio 1:4 through 8:1; 1.2% TE agarose gel", "procedure": "FIG. 2 Formation of CPP·dsRNA complex as assessed by gel shift assay. FIG. 2A Reactions were assembled as described in Example 3, with increasing amounts of MPG-YFP added to […] Cy3-dsRNA (595.8 ng), from a molar ratio (CPP:dsRNA) of 1:4 through 8:1. After incubation, 20 μL reaction volumes were each mixed with 2 μL 10% molecular biology grade glycerol and electrophoresed on a 1.2% Tris-EDTA (TE) agarose gel and stained with Invitrogen™ SYBR Safe DNA Gel Stain (Thermo Fisher Scientific, Waltham, MA). Effects on mobility of the Cy3-dsRNA band are observed upon increasing molar ratios of MPG-YFP. […] The large relative size of MPG-YFP causes a large band shift. FIG. 2B Reactions were assembled as described in Example 3, with increasing amounts of CyLoP added to 770 nM dsRNA (2100 ng), from a molar ratio of 1:4 through 8:1. […] FIG. 2C Results of MPG-YFP binding to Cy3-dsRNA (described in 2A) assessed by DLS. […] Readings were collected using default settings for protein molecules, at 25° C. with a 15 second equilibration stage, using a Zetasizer Ultra and accompanying software (Malvern Panalytical, Malvern, United Kingdom). The dispersant was adjusted to account for the specific viscosity and refractive index of the complex formation solution prior to calculation of detected sizes. […]"}},
  "note": "Peptide text beside a SMILES is read from it.",
  "data": [
    {"smiles": "N=C(N)NCCC[C@H](NC(=O)[C@H](Cc1c[nH]c2ccccc12)NC(=O)[C@H](CCCNC(=N)N)NC(=O)[C@@H](N)CS)C(=O)N[C@@H](Cc1c[nH]c2ccccc12)C(=O)N[C@@H](CCCCN)C(=O)N[C@@H](CS)C(=O)N[C@@H](CS)C(=O)N[C@@H](CCCCN)C(=O)N[C@@H](CCCCN)C(=O)O", "note": "[CyLoP-1, CRWRWKCCKK] (H-CRWRWKCCKK-OH; N-terminus and C-terminus assumed)", "values": [
      {"measurement": "Affected (%)", "setting": "[1]; 0.195 ppm in artificial diet", "result": 0, "unit": "%"},
      {"measurement": "Affected (%)", "setting": "[1]; 0.391 ppm in artificial diet", "result": 0, "unit": "%"},
      {"measurement": "Affected (%)", "setting": "[1]; 0.781 ppm in artificial diet", "result": 0, "unit": "%"},
      {"measurement": "Affected (%)", "setting": "[1]; 1.56 ppm in artificial diet", "result": 0, "unit": "%"},
      {"measurement": "Affected (%)", "setting": "[1]; 3.13 ppm in artificial diet", "result": 0, "unit": "%"},
      {"measurement": "Affected (%)", "setting": "[1]; 6.25 ppm in artificial diet", "result": 0, "unit": "%"},
      {"measurement": "Affected (%)", "setting": "[1]; 12.5 ppm in artificial diet", "result": 0, "unit": "%"},
      {"measurement": "Affected (%)", "setting": "[1]; 25.0 ppm in artificial diet", "result": 0, "unit": "%"},
      {"measurement": "Affected (%)", "setting": "[1]; 50.0 ppm in artificial diet", "result": 0, "unit": "%"},
      {"measurement": "Affected (%)", "setting": "[1]; 100 ppm in artificial diet", "result": 0, "unit": "%"},
      {"measurement": "Affected (%)", "setting": "[1]; 200 ppm in artificial diet", "result": 0, "unit": "%"},
      {"measurement": "gel shift: apparent size of the RNA band with increasing CPP", "setting": "dvssj1 frag 1 dsRNA", "result": "binding of CyLoP molecules to the RNA"}
    ]}
  ]
}
